Test results taken from patent US11292788B2, “IL-17 and IFN-gamma inhibition for the treatment of autoimmune diseases and chronic inflammation” (Immunic AG, priority 2017, dated 2022).
≈ marks a conversion by molar mass, not a printed value. Where two headings read alike, the source gives them in different places.

How the values were obtained:
[1] = Microsomal stability: incubation with human liver microsomes, residual parent compound by HPLC-MS/MS; type: in vitro ADME; conditions: up to 60 min, read-out: t1/2 hLM
Method in brief: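 Compound at 1 μM final with 0.5 mg/ml pooled human liver microsomes and NADPH regenerating system, 0.1 M potassium phosphate pH 7.4, 0.4% DMSO, 37° C, sampled up to 60 min. Residual parent measured by HPLC-MS/MS; half-life and clearance from slope of remaining % of T0.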

[2] = Aqueous solubility in 50 mM phosphate buffer (HPLC/DAD); type: physicochemical; conditions: 50 mM phosphate buffer, 23 °C, pH 7.4, aqueous buffer, kinetic from dmso stock, aqueous solubility class; read-out: aq. solub.
Description: To achieve this, the samples (final volume 500 μl, 200 μM compound concentration) were incubated for 24 hours at 23° C. under continuous shaking at 1400 rpm (Thermomixer, Eppendorf) in aqueous phosphate buffers (pH 4.0, 6.0, 7.4 and 9.0) with a final DMSO concentration of 1%. To separate the undissolved compound from the solution, the samples were centrifuged (30 min 18000 g at 23° C.). Supernatants were measured via HPLC equipped with a UV detector and concentrations were calculated according to signals of a standard curve. The standard curve was prepared by diluting a stock solution of each compound (c=0.1 mg/ml; received by adding 10 μl of 20 mM compound in DMSO to 914 μl MeCN) in a certain amount of MeCN to cover a range of 0.1 to 200 μg/ml.

IL-17A = assay: Cytokine assay: IL-17A production by human PBMC stimulated with PHA; type: cell-based; conditions: IC50 class, read-out: IL-17A Inhib.
Method in brief: (§1)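 Compounds were titrated semilogarithmically for IC50, or screened at 10, 1, 0.1 and 0.01 μM, on healthy-donor PBMC stimulated for 48 h with 2 μg/ml PHA at 1×10^5 cells/well. Cytokines in culture supernatants were then quantified by ELISA or Luminex bead assay.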

IL-17F = assay: Cytokine assay: IL-17F production by human PBMC stimulated with PHA; type: cell-based; conditions: Homo sapiens, PBMC, IC50 class, read-out: IL-17F Inhib.
Method in brief: as §1

INF-γ = assay: Cytokine assay: INF-γ production by human PBMC stimulated with PHA; type: cell-based; conditions: Homo sapiens, PBMC, IC50 class, read-out: IFN-gamma Inhib.
Method in brief: as §1

[3] = human liver microsomes 0.5 mg/ml, compound 1 μM, pH 7.4, 37° C.
[4] = pH 7.4, human liver microsomes, 1 μM compound, 0.5 mg/ml HLM, 37° C.

| Compound | half-life at 1 μM [1, 3] [h] | solubility at 24 h [2] [µM] | IC50 (IL-17A; Homo sapiens, PBMC) [nM] | IC50 (IL-17F) [nM] | IC50 (INF-γ) [nM] | half-life at 1 μM [1, 4] [h] | IC50 (IL-17A) [nM] |
| --- | --- | --- | --- | --- | --- | --- | --- |
| COCc1c(-c2c(F)cccc2Cl)noc1-c1cnn(CCC(C)(C)O)c1C(F)(F)F [Example 67, 4-{4-[3-(2-chloro-6-fluorophenyl)-4-(methoxymethyl)-1,2-oxazol-5-yl]-5-(trifluoromethyl)-1H-pyrazol-1-yl}-2-methylbutan-2-ol] | > 1.67 | > 10 | 50 to 500 | 50 to 500 | < 50 |  |  |
| CCOCc1c(-c2c(F)cccc2Cl)noc1-c1cnn(C[C@@H](C)O)c1C(F)(F)F [Example 76, (2R)-1-{4-[3-(2-chloro-6-fluorophenyl)-4-(ethoxymethyl)-1,2-oxazol-5-yl]-5-(trifluoromethyl)-1H-pyrazol-1-yl}propan-2-ol] | 0.167 to 0.666 | > 10 | 50 to 500 | 50 to 500 | < 50 |  |  |
| CC(C)(O)CCn1ncc(-c2onc(-c3c(F)cccc3Cl)c2COC2CC2)c1C(F)(F)F [Example 77, 4-{4-[3-(2-chloro-6-fluorophenyl)-4-(cyclopropoxymethyl)-1,2-oxazol-5-yl]-5-(trifluoromethyl)-1H-pyrazol-1-yl}-2-methylbutan-2-ol] | > 1.67 | 3 to 9.99 (≈ 1.46 to 4.87 µg/mL) | < 50 | < 50 | < 50 |  |  |
| CC(C)(O)CCn1ncc(-c2onc(-c3ccccc3Cl)c2COC2CC2)c1C(F)(F)F [Example 78, 4-{4-[3-(2-chlorophenyl)-4-(cyclopropoxymethyl)-1,2-oxazol-5-yl]-5-(trifluoromethyl)-1H-pyrazol-1-yl}-2-methylbutan-2-ol] | 0.667 to 1.67 | > 10 | 50 to 500 | < 50 | < 50 |  |  |
| Cc1c(-c2onc(-c3c(F)cccc3Cl)c2COC2CC2)cnn1CCC(C)(C)O [Example 82, 4-{4-[3-(2-chloro-6-fluorophenyl)-4-(cyclopropoxymethyl)-1,2-oxazol-5-yl]-5-methyl-1H-pyrazol-1-yl}-2-methylbutan-2-ol] | > 1.67 | > 10 | < 50 | < 50 | < 50 |  |  |
| Cc1c(-c2onc(-c3c(F)cccc3Cl)c2COC2CC2)cnn1[C@H]1C[C@@](C)(O)C1 [Example 83, 3-{4-[3-(2-chloro-6-fluorophenyl)-4-(cyclopropoxymethyl)-1,2-oxazol-5-yl]-5-methyl-1H-pyrazol-1-yl}-1-methylcyclobutan-1-ol] | 0.667 to 1.67 | 1 to 2.99 (≈ 0.432 to 1.29 µg/mL) | < 50 | < 50 | < 50 |  |  |
| C[C@]1(O)C[C@@H](n2ncc(-c3onc(-c4ccccc4Cl)c3COC3CC3)c2C(F)(F)F)C1 [Example 87, 3-{4-[3-(2-chlorophenyl)-4-(cyclopropoxymethyl)-1,2-oxazol-5-yl]-5-(trifluoromethyl)-1H-pyrazol-1-yl}-1-methylcyclobutan-1-ol] | > 1.67 | > 10 | 50 to 500 | < 50 | < 50 |  |  |
| CC(C)OCc1c(-c2c(F)cccc2Cl)noc1-c1cnn(C[C@@H](C)O)c1C(F)(F)F [Example 89, (2R)-1-{4-[3-(2-chloro-6-fluorophenyl)-4-[(propan-2-yloxy)methyl]-1,2-oxazol-5-yl]-5-(trifluoromethyl)-1H-pyrazol-1-yl}propan-2-ol] | 0.0333 to 0.167 | > 10 | < 50 | < 50 | < 50 |  |  |
| C[C@@H](O)Cn1ncc(-c2onc(-c3c(F)cccc3Cl)c2COC2CCC2)c1C(F)(F)F [Example 90, (2R)-1-(4-(3-(2-chloro-6-fluorophenyl)-4-(cyclobutoxymethyl)isoxazol-5-yl)-5-(trifluoromethyl)-1H-pyrazol-1-yl)propan-2-ol] | 0.0333 to 0.167 | > 10 | < 50 | < 50 | < 50 |  |  |
| Cc1c(-c2onc(-c3ccccc3Cl)c2-c2ncccn2)cnn1[C@H]1C[C@@](C)(O)C1 [Example 99, 3-(4-(3-(2-chlorophenyl)-4-(pyrimidin-2-yl)isoxazol-5-yl)-5-methyl-1H-pyrazol-1-yl)-1-methylcyclobutan-1-ol] |  | > 10 | 50 to 500 | < 50 | < 50 | > 1.67 |  |
| C[C@]1(O)C[C@@H](n2ncc(-c3onc(-c4ccccc4Cl)c3-c3cnccn3)c2C(F)(F)F)C1 [Example 101, 3-{4-[3-(2-chlorophenyl)-4-(pyrazin-2-yl)-1,2-oxazol-5-yl]-5-(trifluoromethyl)-1H-pyrazol-1-yl}-1-methylcyclobutan-1-ol] |  | 1 to 2.99 (≈ 0.476 to 1.42 µg/mL) | 500 to 5000 | ≥ 5000 | ≥ 5000 | > 1.67 |  |
| C[C@]1(O)C[C@@H](n2ncc(-c3onc(-c4ccccc4Cl)c3-c3ncccn3)c2C(F)(F)F)C1 [Example 102, 3-{4-[3-(2-chlorophenyl)-4-(pyrimidin-2-yl)-1,2-oxazol-5-yl]-5-(trifluoromethyl)-1H-pyrazol-1-yl}-1-methylcyclobutan-1-ol] |  | > 10 | < 50 | < 50 | < 50 | > 1.67 |  |
| C[C@]1(O)C[C@@H](n2ncc(-c3onc(-c4c(F)cccc4Cl)c3-c3ccncn3)c2C(F)(F)F)C1 [Example 104, 3-{4-[3-(2-chloro-6-fluorophenyl)-4-(pyrimidin-4-yl)-1,2-oxazol-5-yl]-5-(trifluoromethyl)-1H-pyrazol-1-yl}-1-methylcyclobutan-1-ol] |  | 1 to 2.99 (≈ 0.494 to 1.48 µg/mL) |  | < 50 | < 50 | > 1.67 | < 50 |
| C[C@]1(O)C[C@@H](n2ncc(-c3onc(-c4ccccc4Cl)c3-c3ccncn3)c2C(F)(F)F)C1 [Example 106, 3-{4-[3-(2-chlorophenyl)-4-(pyrimidin-4-yl)-1,2-oxazol-5-yl]-5-(trifluoromethyl)-1H-pyrazol-1-yl}-1-methylcyclobutan-1-ol] |  | > 10 | < 50 | < 50 | < 50 | > 1.67 |  |
| Cc1c(-c2onc(-c3c(F)cccc3Cl)c2-c2cnccn2)cnn1[C@H]1C[C@@](C)(O)C1 [Example 110, 3-{4-[3-(2-chloro-6-fluorophenyl)-4-(pyrazin-2-yl)-1,2-oxazol-5-yl]-5-methyl-1H-pyrazol-1-yl}-1-methylcyclobutan-1-ol] |  | > 10 | 50 to 500 | 50 to 500 | 50 to 500 | > 1.67 |  |
| Cc1c(-c2onc(-c3c(F)cccc3Cl)c2-c2ncccn2)cnn1[C@H]1C[C@@](C)(O)C1 [Example 111, 3-{4-[3-(2-chloro-6-fluorophenyl)-4-(pyrimidin-2-yl)-1,2-oxazol-5-yl]-5-methyl-1H-pyrazol-1-yl}-1-methylcyclobutan-1-ol] |  | > 10 | < 50 | < 50 | < 50 | > 1.67 |  |
| COc1cccc(-c2noc(-c3cnn([C@H]4C[C@@](C)(O)C4)c3C)c2-c2ncccn2)c1Cl [Example 112, 3-{4-[3-(2-chloro-3-methoxyphenyl)-4-(pyrimidin-2-yl)-1,2-oxazol-5-yl]-5-methyl-1H-pyrazol-1-yl}-1-methylcyclobutan-1-ol] |  | > 10 | < 50 | < 50 | < 50 | > 1.67 |  |
| CC(C)(O)CCn1ncc(-c2onc(-c3c(F)cccc3Cl)c2-c2ncccn2)c1C(F)(F)F [Example 123, 4-{4-[3-(2-chloro-6-fluorophenyl)-4-(pyrimidin-2-yl)-1,2-oxazol-5-yl]-5-(trifluoromethyl)-1H-pyrazol-1-yl}-2-methylbutan-2-ol] |  | > 10 | < 50 | < 50 | < 50 | > 1.67 |  |
| Cc1c(-c2onc(-c3ccccc3Cl)c2-c2ncccn2)cnn1CCC(C)(C)O [Example 126, 4-[4-[3-(2-chlorophenyl)-4-(pyrimidin-2-yl)-1,2-oxazol-5-yl]-5-methyl-1H-pyrazol-1-yl]-2-methylbutan-2-ol] |  | > 10 | 50 to 500 | 50 to 500 | 50 to 500 | > 1.67 |  |
| CC(C)(O)CCn1ncc(-c2onc(-c3cccc(OCc4ccccc4)c3Cl)c2-c2ncccn2)c1C(F)(F)F [Example 128, 4-(4-{3-[3-(benzyloxy)-2-chlorophenyl]-4-(pyrimidin-2-yl)-1,2-oxazol-5-yl}-5-(trifluoromethyl)-1H-pyrazol-1-yl)-2-methylbutan-2-ol] |  | < 1 | < 50 | < 50 | ≥ 5000 | 0.0333 to 0.167 |  |
